Data on 1 molecule can be found in publication PMC9305623, “Next generation GLP-1/GIP/glucagon triple agonists normalize body weight in obese mice” (Molecular Metabolism, 2022).

*1 amine or outer side, *2 acyl side, *3 side chain or, on linkers, in order; H or OH if unused. Where a SMILES comes first, the peptide text is derived from it. Side-chain parts run from the residue outwards. [ ]: non-standard residue; d: D form. The star is where a group is joined. C20 diacid = O=C(O)CCCCCCCCCCCCCCCCCCC(=O)*; γGlu = O=C(O)[C@H](CCC(=O)[*:2])N[*:1]; εLys = N[C@@H](CCCCN[*:1])C(=O)[*:2]; Aib = CC(C)(N)C(=O)O

In one data set the target is T1, mGLP-1 Receptor (Mus musculus, UniProt O35659).
T1 construct: expressed in transfected cells; host or cells: baby hamster kidney (BHK) cells, stably transfected, with CRE-firefly luciferase reporter
T1 sequence (O35659 22-463): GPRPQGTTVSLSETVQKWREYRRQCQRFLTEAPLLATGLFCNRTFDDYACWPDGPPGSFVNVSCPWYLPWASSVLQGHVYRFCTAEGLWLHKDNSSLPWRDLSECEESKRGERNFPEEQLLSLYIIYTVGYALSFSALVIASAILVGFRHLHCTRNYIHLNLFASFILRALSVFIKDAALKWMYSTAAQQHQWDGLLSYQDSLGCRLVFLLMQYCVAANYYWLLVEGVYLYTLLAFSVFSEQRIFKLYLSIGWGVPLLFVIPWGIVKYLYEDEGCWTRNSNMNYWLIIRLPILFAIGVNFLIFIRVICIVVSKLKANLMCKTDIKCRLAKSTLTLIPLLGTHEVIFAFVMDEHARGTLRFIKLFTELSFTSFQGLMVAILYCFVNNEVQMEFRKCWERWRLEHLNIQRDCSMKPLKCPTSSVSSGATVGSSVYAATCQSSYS
Put plainly: Receptor activation: cAMP production by CRE-luciferase reporter in stably transfected BHK cells. Particulars: relative to native ligand at mouse-derived receptor. Format: cell-based.

A short description of a further data set: in vivo. The arrangement: species or system Göttingen minipigs. Particulars: female, Göttingen, minipig, iv, 2 nmol/kg. The method, then: Studies were conducted in accordance with the Protection of Animals Act, the Act on Experiments on Animals, and the Standard Operating Procedures for Experiments on Animals at Novo Nordisk A/S. The experiments were performed under the supervision and approval of the Danish Government Animal Experiments Inspectorate and the Novo Nordisk Ethical Review Counsel. Female Göttingen minipigs (Ellegaard Göttingen Minipigs A/S), 7–14 months old and weighing 16–35 kg, were housed individually and fed once daily with a restricted SDS minipig diet (Special Diets Services). At least one week before the study, two permanent central venous catheters were implanted in the caudal vena cava of each animal. The animals were fasted for approximately 18 h before dosing and 4 h after dosing but had ad libitum access to water during the whole period. Test compounds dissolved to a concentration of 20–40 nmol/mL in a vehicle (pH 7.4) containing 0.025% polysorbate-20, 10 mM sodium phosphate, and 250 mM glycerol were administered via an intravenous injection through one catheter at a dose of 2 nmol/kg. Blood samples were collected in 8 mM aqueous EDTA for up to 14 days post dosing, preferably through the other catheter, then centrifuged at 4 °C and ∼2000g for 10 min. Plasma was isolated and immediately frozen until RP-HPLC/MS analysis. Individual plasma concentration–time profiles were analysed by a non-compartmental model in Phoenix WinNonLin software (Pharsight Inc.), and the resulting terminal half-lives were determined at the harmonic mean.

Data set [1] deals with DIO mice. Put plainly: Pharmacodynamics in DIO mice: body weight, food intake, body composition. The class given is in vivo, mouse (male C57BL/6J). On the procedure:
Studies were approved by and performed according to the guidelines of the Institutional Animal Care and Use Committee of the University of Cincinnati. Male C57BL/6J mice (Jackson Laboratories) were housed 4 per cage, exposed to a controlled 12 h/12 h light–dark cycle at room temperature (22 °C), and provided ab libitum access to water and a 58% fat, high-sugar diet (D12331, Research Diets) for 12 weeks. Mice exceeding 50 g of body weight were considered diet-induced obese (DIO) and included in studies, where they were randomized and evenly distributed to test groups (n = 8 per group) according to body weight. Test compounds dissolved at a concentration of 0.5–2 μM in a vehicle (pH 7.4) containing 0.05% polysorbate-80, 50 mM sodium phosphate, and 70 mM sodium chloride were administered subcutaneously once daily, unless otherwise noted, during the light cycle for each day of treatment at a volume of 2–5 μL per gram of body weight as necessary to achieve the desired dose. Body weight and food intake were measured immediately prior to dosing each day. The percent change in body was calculated individually for each mouse based on initial body weight prior to the first injection. For intraperitoneal (i.p.) glucose tolerance tests (IPGTT), animals were fasted for 6 h prior to the test but had access to water. Fasted blood glucose levels were measured, then mice were injected with an i.p. glucose load of 2 g/kg from a 200 mg/mL aqueous glucose solution. Tail blood glucose levels were measured 0, 15, 30, 60, 90, and 120 min following the glucose load using a handheld glucometer (Freestyle, Abbott).

For data set [2], the system named is DIO mice. In words: Energy expenditure in DIO mice (indirect calorimetry). Format: in vivo, mouse. Particulars: daily injections of 3 nmol/kg for 5 days inside an indirect calorimeter. The method, then:
Energy expenditure was assessed using a combined indirect calorimetry system (TSE Systems, Chesterfield, MO). Animals were kept in the indirect calorimetry system for 7d; d1 (0–24h) included acclimation to the new cages but no energy expenditure readings, d2 included baseline energy expenditure readings with vehicle injections, d3-7 included experimental energy expenditure readings and treatment injections. Treatment injections begin at t = 48h as indicated by the vertical dashed line and were performed every 24h as indicated by the arrows. O2 consumption and CO2 production were measured every 20 min to determine the respiratory quotient and energy expenditure using the Weir equation (EE=(3.94 x vO2) + (1.1 x vCO2)).

Data set [3] has as its system DIO mice. Put plainly: Plasma parameters in DIO mice after chronic treatment. Conditions: higher dose (2 nmol/kg), compared to vehicle. The class given is in vivo, mouse.

Description for mGLP-1 Receptor: Cyclic AMP (cAMP) production was assessed as a proxy for receptor activation using stably transfected baby hamster kidney (BHK) cell lines expressing the DNA for one individual receptor (GLP-1R, GIPR, GcgR; human- or mouse-specific sequence) and the DNA for the firefly luciferase reporter gene linked to the cAMP response element (CRE). The cells were kept in continuous culture at 37 °C and 5% CO2 in Dulbecco's Modified Eagle Medium (DMEM) supplemented with 10% heat-inactivated fetal bovine serum (HI-FBS), 300 μg/mL hygromycin, and 500 μg/mL G418; for cell lines expressing GIPR, the G418 concentration was lowered to 400 μg/mL. Cells were plated in a 96-well poly-D-lysine-coated plate at 5,000 cells per well in growth media and incubated overnight at 37 °C with 5% CO2. After the overnight incubation, the media was removed, the plate was washed once in Dulbecco's phosphase-buffered saline (DPBS), and 50 μL of assay buffer (DMEM without phenol red, 10 mM HEPES, 1x Glutamax, 1% ovalbumin, 0.1% Pluronic F-68) was added to each well. […] The assay plate was covered to protect reagent from light, shaken at 250 rpm at room temperature for 30 min, and read in a microtiter plate reader. EC50 values were calculated using Prism software (GraphPad) with the nonlinear regression log(agonist) vs. response. A minimum of two replicates were measured for each sample.

As to `CC[C@H](C)[C@H](NC(=O)[C@H](CO)NC(=O)[C@H](Cc1ccc(O)cc1)NC(=O)[C@H](CC(=O)O)NC(=O)[C@H](CO)NC(=O)[C@@H](NC(=O)[C@H](Cc1ccccc1)NC(=O)[C@@H](NC(=O)CNC(=O)[C@H](Cc1c[nH]cn1)NC(=O)C(C)(C)NC(=O)[C@@H](N)Cc1c[nH]cn1)[C@@H](C)O)[C@@H](C)O)C(=O)N[C@@H](Cc1ccc(O)cc1)C(=O)N[C@@H](CC(C)C)C(=O)N[C@@H](CCC(=O)O)C(=O)N[C@@H](CCCCNC(=O)[C@@H](N)CCCCNC(=O)[C@@H](N)CCCCNC(=O)CC[C@H](NC(=O)CCCCCCCCCCCCCCCCCCC(=O)O)C(=O)O)C(=O)N[C@@H](CCCCN)C(=O)N[C@@H](Cc1ccc(O)cc1)C(=O)N[C@@H](C)C(=O)NC(C)(C)C(=O)N[C@@H](CCC(=O)O)C(=O)N[C@@H](Cc1ccccc1)C(=O)N[C@H](C(=O)N[C@@H](CCC(N)=O)C(=O)N[C@@H](Cc1c[nH]c2ccccc12)C(=O)N[C@@H](CC(C)C)C(=O)N[C@@H](CC(C)C)C(=O)N[C@@H](CCC(=O)O)C(=O)NCC(=O)NCC(=O)N1CCC[C@H]1C(=O)N[C@@H](CO)C(=O)N[C@@H](CO)C(=O)NCC(=O)N[C@@H](C)C(=O)N1CCC[C@H]1C(=O)N1CCC[C@H]1C(=O)N1CCC[C@H]1C(=O)N[C@@H](CO)C(N)=O)C(C)C` [Compound 16] (H-H[Aib]HGTFTSDYSIYLEK([εLys-εLys-γGlu-C20 diacid])KYA[Aib]EFVQWLLEGGPSSGAPPPS-NH2), the “mGLP-1 Receptor Relative Potency %” value on mGLP-1 Receptor is on record as 142%. In “in vivo”, the Vd (in general, a proportionality between amount in the body and measured concentration, not a real space) came out at 0.164 L/kg; the clearance (in general, a measure of how efficiently the substance is removed, as volume per time) is 1.5 mL/h/kg; the half-life – broadly, the time in which the quantity being followed falls by half – was 75 h. In addition, the “body weight loss at high dose versus first generation triagonist and SAR441255” value with DIO mice [1] (2 nmol/kg) is “significantly superior body weight loss”. For the same molecule, the “weight lowering efficacy versus tirzepatide” value in the data set on DIO mice [1] (3 nmol/kg daily and dose-escalated (1 to 30 nmol/kg) groups, s.c.) is listed as “significantly more weight lowering efficacy”. In addition, the Body weight reductions entry in the data set with DIO mice [1] (3 nmol/kg daily dose s.c., after 2 weeks of treatment) was “greater than 30%”. Besides, the “origin of weight loss (fat mass vs lean mass)” value with DIO mice [1] (1 or 2 nmol/kg) is listed as “predominantly derived from a reduction in fat mass, not lean mass”. In addition, in the data set on DIO mice [1] (n = 8 per group, up-titrated from 1 to 10 nmol/kg over 24 days, then 10 nmol/kg for up to 18 days), the “animals achieving body weight normalization (average weight of lean litter mates, 22.5 g)” value is “Five of the eight”. Also, the “body weight loss in animals achieving body weight normalization” value in the data set on DIO mice [1] (s.c. once daily, up-titrated from 1 to 10 nmol/kg over 24 days, then 10 nmol/kg for up to 18 days) was 55–60%. Besides, in the data set with DIO mice [2], the energy expenditure result was “increased energy expenditure over both vehicle and tirzepatide”; the locomotor activity result is recorded as “not accompanied by a change in locomotor activity”. The insulin levels result with DIO mice [3] is reported as “decreased”.
